In patent US20230146675A1, “PYRIMIDO[5,4-d]PYRIMIDINE DERIVATIVES AS ENT INHIBITORS FOR THE TREATMENT OF CANCERS, AND COMBINATION THEREOF WITH ADENOSINE RECEPTOR ANTAGONISTS” (ITEOS BELGIUM SA, priority 2020, published 2023):
pIC50: −log10 of the molar value.

What follows are compounds tested against T1, human ENT1 (Homo sapiens, UniProt Q99808) (assay: ENT1 binding assay (competition with Sahenta-DY647 on JAR cells)). Settings: binned IC50.
T1 sequence (Q99808 1-456): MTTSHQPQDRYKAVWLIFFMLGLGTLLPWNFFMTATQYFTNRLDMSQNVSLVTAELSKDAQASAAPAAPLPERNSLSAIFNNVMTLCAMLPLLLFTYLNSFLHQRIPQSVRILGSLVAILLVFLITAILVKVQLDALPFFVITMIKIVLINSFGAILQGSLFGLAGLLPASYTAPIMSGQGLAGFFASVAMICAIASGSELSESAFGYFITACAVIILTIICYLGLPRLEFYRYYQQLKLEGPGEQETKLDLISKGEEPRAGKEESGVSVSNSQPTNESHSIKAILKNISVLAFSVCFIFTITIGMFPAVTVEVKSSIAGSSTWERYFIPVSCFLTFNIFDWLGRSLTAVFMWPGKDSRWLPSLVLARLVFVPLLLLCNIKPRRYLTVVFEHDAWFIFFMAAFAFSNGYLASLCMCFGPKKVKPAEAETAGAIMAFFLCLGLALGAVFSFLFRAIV
Parameters: JAR cells expressing ENT1 were bought from ATCC; host or cells: JAR cells
Method: Purpose. […] By measuring the fluorescence at the end of the assay we could assess the binding potency of the compounds of the present invention.
JAR cells were resuspended in the described buffer. Compounds of the present invention and Sahenta-DY647 were diluted 200× in the described buffer.
The total volume of the reaction was 100 μL (50 μL of cells, 25 μL of the compounds of the present invention and 25 μL of Sahenta-DY647) in a 96 well plate, U-bottom (Greiner®, #650-180). The plates were washed 2× by centrifugation (4 min, 400 rcf at 4° C.) in the same buffer.

| pIC50 | SMILES |
| --- | --- |
| 6.30 to 7.00 | COCCN(CCOC)c1nc(N2CCC(OC)CC2)c2nc(N(CCOC)CCOC)nc(NCc3ccc(OC)cc3)c2n1 [Compound 47, N4-(4-methoxybenzyl)-N2,N2,N6,N6-tetrakis(2-methoxyethyl)-8-(4-methoxypiperidin-1-yl)pyrimido[5,4-d]pyrimidine-2,4,6-triamine] |
| > 7.00 | COCCN(CCOC)c1nc(N2CCC(OC)CC2)c2nc(N(CCOC)CCOC)nc(NCc3cccc(OC)c3)c2n1 [Compound 48, N4-(3-methoxybenzyl)-N2,N2,N6,N6-tetrakis(2-methoxyethyl)-8-(4-methoxypiperidin-1-yl)pyrimido[5,4-d]pyrimidine-2,4,6-triamine] |
| > 7.00 | COCCN(CCOC)c1nc(N2CCC(OC)CC2)c2nc(N(CCOC)CCOC)nc(NCc3ccccc3)c2n1 [Compound 49, N4-benzyl-N2,N2,N6,N6-tetrakis(2-methoxyethyl)-8-(4-methoxypiperidin-1-yl)pyrimido[5,4-d]pyrimidine-2,4,6-triamine] |
| 6.00 to 6.30 | COCCN(CCOC)c1nc(N2CCC(OC)CC2)c2nc(N(CCOC)CCOC)nc(NCc3ccc(C(F)(F)F)nc3)c2n1 [Compound 53, N2,N2,N6,N6-tetrakis(2-methoxyethyl)-8-(4-methoxypiperidin-1-yl)-N4-((6-(trifluoromethyl)pyridin-3-yl)methyl)pyrimido[5,4-d]pyrimidine-2,4,6-triamine] |

Continued, compound first:

| SMILES | pIC50 |
| --- | --- |
| COCCN(CCOC)c1nc(N2CCC(OC)CC2)c2nc(N(CCOC)CCOC)nc(NCC3CCOCC3)c2n1 [Compound 46, N2,N2,N6,N6-tetrakis(2-methoxyethyl)-8-(4-methoxypiperidin-1-yl)-N4-((tetrahydro-2H-pyran-4-yl)methyl)pyrimido[5,4-d]pyrimidine-2,4,6-triamine] | 6.30 to 7.00 |
| COCCN(CCOC)c1nc(N2CCC(OC)CC2)c2nc(N(CCOC)CCOC)nc(NCC(C)(C)C)c2n1 [Compound 50, N2,N2,N6,N6-tetrakis(2-methoxyethyl)-8-(4-methoxypiperidin-1-yl)-N4-neopentylpyrimido[5,4-d]pyrimidine-2,4,6-triamine] | 6.30 to 7.00 |
| COCCCNc1nc(N(CCOC)CCOC)nc2c(N3CCC(OC)CC3)nc(N(CCOC)CCOC)nc12 [Compound 51, N2,N2,N6,N6-tetrakis(2-methoxyethyl)-8-(4-methoxypiperidin-1-yl)-N4-(3-methoxypropyl)pyrimido[5,4-d]pyrimidine-2,4,6-triamine] | 6.00 to 6.30 |
| CCOCCCNc1nc(N(CCOC)CCOC)nc2c(N3CCC(OC)CC3)nc(N(CCOC)CCOC)nc12 [Compound 52, N4-(3-ethoxypropyl)-N2,N2,N6,N6-tetrakis(2-methoxyethyl)-8-(4-methoxypiperidin-1-yl)pyrimido[5,4-d]pyrimidine-2,4,6-triamine] | 6.00 to 6.30 |
| CCCCNc1nc(N(CCOC)CCOC)nc2c(N3CCC(OC)CC3)nc(N(CCOC)CCOC)nc12 [Compound 54, N4-butyl-N2,N2,N6,N6-tetrakis(2-methoxyethyl)-8-(4-methoxypiperidin-1-yl)pyrimido[5,4-d]pyrimidine-2,4,6-triamine] | > 7.00 |
| COCCN(CCOC)c1nc(N2CCC(OC)CC2)c2nc(N(CCOC)CCOC)nc(NCC3CCCC3)c2n1 [Compound 55, N4-(cyclopentylmethyl)-N2,N2,N6,N6-tetrakis(2-methoxyethyl)-8-(4-methoxypiperidin-1-yl)pyrimido[5,4-d]pyrimidine-2,4,6-triamine] | 6.30 to 7.00 |
| COCCN(CCOC)c1nc(N2CCC(OC)CC2)c2nc(N(CCOC)CCOC)nc(NCCOc3ccccc3)c2n1 [Compound 56, N2,N2,N6,N6-tetrakis(2-methoxyethyl)-8-(4-methoxypiperidin-1-yl)-N4-(2-phenoxyethyl)pyrimido[5,4-d]pyrimidine-2,4,6-triamine] | 6.30 to 7.00 |
| COCCN(CCOC)c1nc(N2CCC(OC)CC2)c2nc(N(CCOC)CCOC)nc(NCC3CCOC3)c2n1 (stereo not drawn) [Compound 57, N2,N2,N6,N6-tetrakis(2-methoxyethyl)-8-(4-methoxypiperidin-1-yl)-N4-((tetrahydrofuran-3-yl)methyl)pyrimido[5,4-d]pyrimidine-2,4,6-triamine] | 6.00 to 6.30 |
